Several values for one entry are separate records, joined by “and”; a condition that tells them apart may be missing. Equal entries are not always repeated.
Assay: Drug elution from SADBE dermal patches into pig skin (residual SADBE by HPLC)
Assay type: in vivo
Conditions: for Percent of SADBE presumed in skin / SADBE area in kimwipe swab / SADBE area, 255 nm, 24 min. (extracted from patch) / net HPLC area of SADBE lost and presumed in skin: 2% SADBE in DMSO
Description: Squaric acid dibutyl ester (SADBE) at 2% (w/v) concentration in dimethylsulfoxide (DMSO) was added to a skin patch for dermal dosing of SADBE to test for a delayed-type hypersensitivity response or other skin irritation and to test how much SADBE disappears from the patch with different volumes and time of exposure, and is therefore presumed to enter the skin.
One purpose of this study was to determine the time course of drug elution from the dermal patches into the skin. For that purpose, patches were applied to the skin of pigs and removed 1, 3, 6, or 24 hours later, and then extracted to determine the amount of residual SADBE drug remaining in the patch. The missing SADBE from the amount originally loaded onto the patch is presumed to have transferred into the pig skin.
The skin patches consisted of a polymer backing layer similar to 3M 9916 polyester nonwoven backing layer with adhesive, 3M 9733 polyester film laminate barrier layer, and Precision Fabrics Group 0700-00010 polyester gauze layer. The gauze was heat sealed to the barrier layer. The gauze patch area was about 3 cm^2.
Patches were removed from the pigs at the indicated times and immediately the reservoir portion of the patch was cut out and placed in a 50 ml tube with 10 ml of DMSO.
Immediately after removing the patch, a kimwipe was used to swab the spot on the pig where the patch had been in order to attempt to recover any SADBE that was on the surface of the skin and had not absorbed into the skin. After wiping with the kimwipe, the kimwipe was placed in a separate 50 ml tube containing 10 ml of DMSO.
The tubes of DMSO with patches or kimwipe were transported to our laboratory, shaken at 200 rpm for 10 minutes, and then the DMSO from each tube was placed in an injection vial and analyzed for SADBE content by HPLC on a C18 column with the program SADBE3-50 ul. SADBE elutes in this program at about 24.0 minutes and absorbs at 255 nm, so the area of the 24.0 min peak at 255 nm was used to quantify SADBE.
This program is called SADBE3-50 ul on the HPLC, with 50 ul injection. Column: USP L1 (ODS), 250 mm×4.6 mm, 5 um (C18) • Agilent part number 880995-902 Mobile phase: A: 25 mM KH2PO4 (pH5) (not pH adjusted) • B: Methanol Flow rate: 1.0 mL/min
On Aug. 6, 2018, the first set of patches was placed on 3 pigs. The patches were all held in place on the pigs by an elastic bandage wrapped around the torso of each of the pigs over the patches. The net HPLC area of SADBE lost and presumed in skin is calculated as the area predicted from the 20 ul and 50 ul controls minus the observed HPLC area of SADBE extracted from the test patch that was applied to skin.
SADBE patch testing on pigs 4 and 5 was done on Aug. 13, 2018. In this case, patches on both pigs were covered with TEGADERM™, and on one pig the TEGADERM™ was further covered by an elastic bandage as on August 6.
Summary and Conclusions of Drug Elution from Patches: The percentage of SADBE lost from the patch, and therefore presumed to be transferred into the skin, was calculated for each patch and the results for a given volume (volume of 2% SADBE solution loaded onto the patch) and time point (time patch was on the pig) were averaged, broken down by whether an elastic bandage held the patch in place on the pig or not, was averaged.

[1] = 20 ul on patch, removed at 1 h, elastic bandage (Aug. 6)
[2] = 20 ul on patch, removed at 3 h, elastic bandage (Aug. 6)
[3] = 20 ul on patch, removed at 6 h, elastic bandage (Aug. 6)
[4] = 20 ul on patch, removed at 24 h, elastic bandage (Aug. 6)
[5] = 20 ul, removed at 3 h, TEGADERM, Ace bandage no (Aug. 13)
[6] = 20 ul, removed at 3 h, TEGADERM, Ace bandage yes (Aug. 13)
[7] = 20 ul, removed at 6 h, TEGADERM, Ace bandage no (Aug. 13)
[8] = 20 ul, removed at 6 h, TEGADERM, Ace bandage yes (Aug. 13)
[9] = 50 ul on patch, removed at 1 h, elastic bandage (Aug. 6)
[10] = 50 ul on patch, removed at 3 h, elastic bandage (Aug. 6)
[11] = 50 ul on patch, removed at 6 h, elastic bandage (Aug. 6)
[12] = 50 ul on patch, removed at 24 h, elastic bandage (Aug. 6)
[13] = 50 ul, removed at 3 h, TEGADERM, Ace bandage no (Aug. 13)
[14] = 50 ul, removed at 3 h, TEGADERM, Ace bandage yes (Aug. 13)
[15] = 50 ul, removed at 6 h, TEGADERM, Ace bandage no (Aug. 13)
[16] = 50 ul, removed at 6 h, TEGADERM, Ace bandage yes (Aug. 13)
[17] = 80 ul on patch, removed at 1 h, elastic bandage (Aug. 6)
[18] = 80 ul on patch, removed at 3 h, elastic bandage (Aug. 6)
[19] = 80 ul on patch, removed at 6 h, elastic bandage (Aug. 6)
[20] = 80 ul on patch, removed at 24 h, elastic bandage (Aug. 6)

CCCCOc1c(OCCCC)c(=O)c1=O [SADBE, squaric acid dibutyl ester]
Percent of SADBE presumed in skin [1]: 42.8% and 45.8%
SADBE area in kimwipe swab [1]: 35 and 39
SADBE area, 255 nm, 24 min. (extracted from patch) [1]: 1941 and 1838
net HPLC area of SADBE lost and presumed in skin [1]: 1452 and 1555
Percent of SADBE presumed in skin [2]: 78.3% and 71.9%
SADBE area in kimwipe swab [2]: 38 and 44
SADBE area, 255 nm, 24 min. (extracted from patch) [2]: 735 and 954
net HPLC area of SADBE lost and presumed in skin [2]: 2658 and 2439
Percent of SADBE presumed in skin [3]: 92.2% and 92.8%
SADBE area in kimwipe swab [3]: 40 and 50
SADBE area, 255 nm, 24 min. (extracted from patch) [3]: 265 and 244
net HPLC area of SADBE lost and presumed in skin [3]: 3128 and 3149
Percent of SADBE presumed in skin [4]: 94.6% and 95.5%
SADBE area in kimwipe swab [4]: 19 and 21
SADBE area, 255 nm, 24 min. (extracted from patch) [4]: 182 and 151
net HPLC area of SADBE lost and presumed in skin [4]: 3211 and 3242
Percent of SADBE presumed in skin [5]: 60.4% and 38.0%
SADBE area, 255 nm, 24 min. (extracted from patch) [5]: 1327 and 2076
net HPLC area of SADBE lost and presumed in skin [5]: 2021 and 1272
Percent of SADBE presumed in skin [6]: 77.5% and 74.9%
SADBE area, 255 nm, 24 min. (extracted from patch) [6]: 753 and 842
net HPLC area of SADBE lost and presumed in skin [6]: 2595 and 2506
Percent of SADBE presumed in skin [7]: 88.4% and 70.5%
net HPLC area of SADBE lost and presumed in skin [7]: 2960 and 2362
Percent of SADBE presumed in skin [8]: 90.2% and 88.4%
SADBE area, 255 nm, 24 min. (extracted from patch) [8]: 328 and 390
net HPLC area of SADBE lost and presumed in skin [8]: 3020 and 2958
Percent of SADBE presumed in skin [9]: 38.1% and 43.0%
SADBE area in kimwipe swab [9]: 78 and 75
SADBE area, 255 nm, 24 min. (extracted from patch) [9]: 5108 and 4698
net HPLC area of SADBE lost and presumed in skin [9]: 3141 and 3551
Percent of SADBE presumed in skin [10]: 67.2% and 78.9%
SADBE area in kimwipe swab [10]: 52 and 78
SADBE area, 255 nm, 24 min. (extracted from patch) [10]: 2707 and 1741
net HPLC area of SADBE lost and presumed in skin [10]: 5542 and 6508
Percent of SADBE presumed in skin [11]: 84.9% and 91.9%
SADBE area in kimwipe swab [11]: 50 and 45
SADBE area, 255 nm, 24 min. (extracted from patch) [11]: 1243 and 666
net HPLC area of SADBE lost and presumed in skin [11]: 7006 and 7583
Percent of SADBE presumed in skin [12]: 97.3% and 98.4%
SADBE area in kimwipe swab [12]: 20 and 22
SADBE area, 255 nm, 24 min. (extracted from patch) [12]: 224 and 128
net HPLC area of SADBE lost and presumed in skin [12]: 8025 and 8121
Percent of SADBE presumed in skin [13]: 50.8% and 56.9%
SADBE area, 255 nm, 24 min. (extracted from patch) [13]: 4058 and 3549
net HPLC area of SADBE lost and presumed in skin [13]: 4184 and 4693
Percent of SADBE presumed in skin [14]: 57.7% and 32.1%
SADBE area, 255 nm, 24 min. (extracted from patch) [14]: 3484 and 5599
net HPLC area of SADBE lost and presumed in skin [14]: 4758 and 2643
Percent of SADBE presumed in skin [15]: 70.2% and 54.9%
SADBE area, 255 nm, 24 min. (extracted from patch) [15]: 2454 and 3717
net HPLC area of SADBE lost and presumed in skin [15]: 5788 and 4525
Percent of SADBE presumed in skin [16]: 76.4% and 83.3%
SADBE area, 255 nm, 24 min. (extracted from patch) [16]: 1949 and 1376
net HPLC area of SADBE lost and presumed in skin [16]: 6293 and 6866
Percent of SADBE presumed in skin [17]: 24.6% and 30.2%
SADBE area in kimwipe swab [17]: 105 and 98
SADBE area, 255 nm, 24 min. (extracted from patch) [17]: 9952 and 9208
net HPLC area of SADBE lost and presumed in skin [17]: 3246 and 3990
Percent of SADBE presumed in skin [18]: 27.9% and 49.0%
SADBE area, 255 nm, 24 min. (extracted from patch) [18]: 9517 and 6734
net HPLC area of SADBE lost and presumed in skin [18]: 3681 and 6464
Percent of SADBE presumed in skin [19]: 83.4% and 81.3%
SADBE area, 255 nm, 24 min. (extracted from patch) [19]: 2192 and 2471
net HPLC area of SADBE lost and presumed in skin [19]: 11006 and 10727
Percent of SADBE presumed in skin [20]: 96.1% and 97.9%
SADBE area in kimwipe swab [20]: 24 and 20
SADBE area, 255 nm, 24 min. (extracted from patch) [20]: 509 and 273
net HPLC area of SADBE lost and presumed in skin [20]: 12689 and 12925
loaded drug transferred into the skin (by 6 hours, all loading volumes tested, with the elastic bandage): over 80%
loaded drug transferred into the skin (by 24 hours): over 95%
Average transfer of SADBE into skin (with elastic bandage, 20 ul of 2% SADBE, patch worn 1 hour): 44.3% (n = 2)
Average transfer of SADBE into skin (with elastic bandage, 20 ul of 2% SADBE, patch worn 3 hours): 75.6% (n = 4)
Average transfer of SADBE into skin (with elastic bandage, 20 ul of 2% SADBE, patch worn 6 hours): 90.9% (n = 4)
Average transfer of SADBE into skin (with elastic bandage, 20 ul of 2% SADBE, patch worn 24 hours): 95.1% (n = 2)
Average transfer of SADBE into skin (with elastic bandage, 50 ul of 2% SADBE, patch worn 1 hour): 40.6% (n = 2)
Average transfer of SADBE into skin (with elastic bandage, 50 ul of 2% SADBE, patch worn 3 hours): 59.0% (n = 4)
Average transfer of SADBE into skin (with elastic bandage, 50 ul of 2% SADBE, patch worn 6 hours): 84.1% (n = 4)
Average transfer of SADBE into skin (with elastic bandage, 50 ul of 2% SADBE, patch worn 24 hours): 97.9% (n = 2)
Average transfer of SADBE into skin (with elastic bandage, 80 ul of 2% SADBE, patch worn 1 hour): 27.4% (n = 2)
Average transfer of SADBE into skin (with elastic bandage, 80 ul of 2% SADBE, patch worn 3 hours): 38.4% (n = 2)
Average transfer of SADBE into skin (with elastic bandage, 80 ul of 2% SADBE, patch worn 6 hours): 82.3% (n = 2)
Average transfer of SADBE into skin (with elastic bandage, 80 ul of 2% SADBE, patch worn 24 hours): 97.0% (n = 2)
Average transfer of SADBE into skin (without elastic bandage, 20 ul of 2% SADBE, patch worn 3 hours): 49.2% (n = 2)
Average transfer of SADBE into skin (without elastic bandage, 20 ul of 2% SADBE, patch worn 6 hours): 79.5% (n = 2)
Average transfer of SADBE into skin (without elastic bandage, 50 ul of 2% SADBE, patch worn 3 hours): 53.9% (n = 2)
Average transfer of SADBE into skin (without elastic bandage, 50 ul of 2% SADBE, patch worn 6 hours): 62.6% (n = 2)
